Patent publication EP4685153A1 (priority 2023, dated 2024)
Residues, ends and D or L forms follow the SMILES beside them. *: point of attachment. Succinyl(4-O-cholesteryl) = CC(C)CCC[C@@H](C)[C@H]1CC[C@H]2[C@@H]3CC=C4C[C@@H](OC(=O)CCC(=O)*)CC[C@]4(C)[C@H]3CC[C@]12C

Key:
[1] = In vitro cytotoxicity (CCK-8), TZM-bl cells; format: cell-based; details: human, CCK-8, 48 hours
Method: (§1) The in vitro cytotoxicity was detected by using a CCK-8 cell proliferation/toxicity assay kit (manufacturer: Abbkine, Cat. No.: KTC 011001). […] By using GraphPad Prism software, the inhibition rate curve was fitted and the half-maximal cytotoxic concentration (CC50) of the drug was calculated.

[2] = In vitro cytotoxicity (CCK-8), MT-4 cells; format: cell-based; details: human, CCK-8, 48 hours
Method: as §1

[3] = In vitro cytotoxicity (CCK-8), MDCK cells; format: cell-based; details: dog, CCK-8, 48 hours
Method: as §1

[4] = In vitro cytotoxicity (CCK-8), Huh-7 cells; format: cell-based; details: human, CCK-8, 48 hours
Method: as §1

[5] = In vitro cytotoxicity (CCK-8), Hep-2 cells; format: cell-based; details: human, CCK-8, 48 hours
Method: as §1

[6] = In vitro cytotoxicity (CCK-8), HEK293T cells; format: cell-based; details: human, CCK-8, 48 hours
Method: as §1

[7] = In vitro cytotoxicity (CCK-8), 293T/ACE2 cells; format: cell-based; details: human, CCK-8, 48 hours
Method: as §1

[8] = tested on: seven test cells; assay: In vitro cytotoxicity (CCK-8), average over seven test cells; format: cell-based; details: CC50/IC50
Method: as §1

[9] = Circular dichroism of lipopeptide alone; format: physicochemical; details: CD, 10 µM in PBS pH 7.2
[10] = tested on: HIV-1 strain NL4-3 pseudovirus; details: strain NL4-3 pseudovirus
[11] = tested on: HIV-1 strain JRFL pseudovirus; details: strain JRFL pseudovirus
[12] = tested on: HIV-1 strain SG3.1 living virus
[13] = tested on: replicative HIV-1 strain JR-CSF
[14] = tested on: representative pandemic HIV-1 strain pseudoviruses
[15] = tested on: T20-resistant mutant strains (HIV-1 strain NL4-3)
[16] = tested on: MERS-CoV; details: 48 h
[17] = tested on: EBOV; details: 48 h
[18] = tested on: MARV; details: 48 h
[19] = tested on: H7N9; details: 48 h
[20] = tested on: RABV; details: 48 h
[21] = tested on: VSV; details: 48 h
[22] = tested on: protease K, trypsin, or α-chymotrypsin
[23] = tested on: HIV-1 envelope protein (Env); assay: Env-mediated cell-cell fusion inhibition (DSP reporter system)
[24] = target: N44 (Human immunodeficiency virus type 1 group M subtype B, UniProt P04578); assay: Circular dichroism of lipopeptide complex with target sequence N44; details: CD
[25] = Temperature stability experiment (antiviral activity after storage); details: 300 µM aqueous solution, room temperature or 37 °C, various time periods; NL4-3 pseudovirus, TZM-bl cells
[26] = Human serum stability experiment (antiviral activity after incubation); details: 20% human serum, 37 °C, 0 to 240 minutes; NL4-3 pseudovirus, TZM-bl cells

N44, sequence (P04578 538-581): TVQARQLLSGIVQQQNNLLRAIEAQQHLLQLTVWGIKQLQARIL

CC[C@H](C)[C@H](NC(=O)[C@H](CCCCN)NC(=O)[C@H](CCCCN)NC(=O)[C@H](CCC(=O)O)NC(=O)[C@H](CC(C)C)NC(=O)[C@H](CCC(=O)O)NC(=O)[C@H](CCC(=O)O)NC(=O)[C@H](CC(C)C)NC(=O)[C@H](CCC(=O)O)NC(=O)[C@H](CCCCN)NC(=O)[C@H](CCC(=O)O)NC(=O)[C@H](Cc1ccc(O)cc1)NC(=O)[C@H](CCC(=O)O)NC(C)=O)C(=O)N[C@@H](CCC(=O)O)C(=O)N[C@@H](CCC(=O)O)C(=O)N[C@@H](CC(C)C)C(=O)N[C@@H](CC(C)C)C(=O)N[C@@H](CCCCN)C(=O)N[C@@H](CCCCN)C(=O)N[C@@H](C)C(=O)N[C@@H](CCC(=O)O)C(=O)N[C@@H](CCC(=O)O)C(=O)N[C@@H](CCC(N)=O)C(=O)N[C@@H](CCC(N)=O)C(=O)N[C@@H](CCCCN)C(=O)N[C@@H](CCCCN)C(=O)N[C@@H](CC(N)=O)C(=O)N[C@@H](CCC(=O)O)C(=O)N[C@@H](C)C(=O)N[C@@H](C)C(=O)N[C@@H](C)C(=O)N[C@@H](CCCCN)C(=O)N[C@@H](CCCCNC(=O)CCC(=O)O[C@H]1CC[C@@]2(C)C(=CC[C@H]3[C@@H]4CC[C@H]([C@H](C)CCCC(C)C)[C@@]4(C)CC[C@@H]32)C1)C(N)=O [LP-128] (Ac-EYEKELEELEKKIEELLKKAEEQQKKNEAAAKK(Succinyl(4-O-cholesteryl))-NH2)
CC50 at 48 h [1]: 7490 nM | CC50 at 48 h [2]: 28200 nM | CC50 at 48 h [3]: 18000 nM | CC50 at 48 h [4]: 40300 nM | CC50 at 48 h [5]: 12500 nM | CC50 at 48 h [6]: 8720 nM | CC50 at 48 h [7]: 24100 nM | therapeutic selective index (SI) [8]: very high | α-helix content, lipopeptide alone [9]: 66% | IC50 [10]: 0.00327 nM | IC50 [11]: 0.00497 nM | inhibitory activity higher than that of the T20, SG3.1 ([12]; TZM-bl cells, versus T20): 4282 folds | IC50 ([12]; strain SG3.1 living virus): 0.00175 nM | inhibitory activity higher than the T20, JR-CSF ([13]; TZM-bl cells, versus T20): 750 folds | IC50 ([13]; replicative strain JR-CSF, 48 h): 0.00747 nM | IC50 ([14]; representative pandemic strain pseudoviruses, 48 h): 0.00319 nM | inhibitory activity against 12 pseudoviruses higher than that of the T20 ([14]; versus T20): 6286 folds | IC50 ([15]; T20-resistant mutant strains ( strain NL4-3, 48 h)): 0.00913 nM | inhibitory activity against 12 drug-resistant mutant strains higher than that of the LP-98 ([15]; versus LP-98): 292 folds | IC50 [16]: 456 nM | IC50 [17]: 274 nM | IC50 [18]: 534 nM | IC50 [19]: 353 nM | IC50 [20]: 1130 nM | IC50 [21]: 1490 nM | change in antiviral activity after treatment with three proteases [22]: no significant change | IC50 ([23]; read-out: average IC50 value, membrane fusion of 12 viruses, average over Env of 12 representative pandemic HIV-1 strains): 0.00402 nM | inhibitory activity against membrane fusions of 12 viruses higher than that of the T20 ([23]; versus T20): 2790 folds | Tm value of the mixture with N44 ([24]; [θ]222, 20-98 °C at 2 °C/min): 90 °C | α-helix content of the mixture with N44 ([24]; lipopeptide and N44 each 10 µM in PBS pH 7.2): 84% | change in antiviral activity after treatment at different temperatures [25]: no significant change | change in antiviral activity after treatment with human serum [26]: no significant change
